This experiment has as its target T1, Human GLP-1 receptor (Homo sapiens, UniProt P43220).
T1 construct: expressed in transfected cells; host or cells: CHO-K1
The experiment is described as follows: Measurement of GLP-1 receptor agonist activity (cAMP assay in hGLP-1R/CHO-K1 cells). In kind it is cell-based. The following applies: for Emax: CHO-K1, maximum effect, cAMP with 2 nM human GLP-1 (7-36) = 100%, DMSO only = 0%; for EC50: cAMP increase in hGLP-1R/CHO-K1 cells, 1 hour at 37° C., with Forskolin. The procedure:
Human GLP-1 receptor stably expressing cells (hGLP-1R/CHO-K1 cells) are cultured in an α-MEM medium (Sigma) containing 10% FBS (Hyclone), 2% GlutaMAX (Gibco), 1% G418 (Nacalai Tesque), and 1% Penicillin-Streptomycin Mixed Solution (Sigma) at 37° C. under 5% CO2 conditions, and recovered by treating a 10 fold diluted 5.0 g/1-trypsin/5.3 mmol/1-EDTA solution (Nacalai Tesque) and cryopreserved.
A DMSO solution containing the compound of the present invention or human GLP-1 (7-36) (Phoenix Pharmaceuticals) is dispensed into a 384-well microplate (Greiner) at 62.5 nL/well, and in addition, 400 μM Forskolin (Nacalai Tesque) is dispensed therein at 7.5 nL/well. Subsequently, the frozen GLP-1 R/CHO-K1 cells are thawed in a thermostatic bath at 37° C., suspended in HBSS buffer (GIBCO) containing 0.1% BSA (Sigma), 20 mM HEPES, 0.1 mM IBMX (Sigma), and 0.2 mM RO20-1724 (Calbiochem) at 2×10^4 cells/mL, and the cell suspension is added at 6 μL/well. The solution was incubated at 37° C. for 1 hour and intracellular cAMP concentration is measured using cAMP Gs dynamic kit (Cisbio) according to the protocol attached to the product. Specifically, a cAMP-d2/Anti-cAMP-Cryptate (1/1) mixture solution is added in a total amount of 6 μL/well, and is incubated at room temperature for 1 hour, and then, time-resolved fluorescence is measured using PHERAstar (BMG Labtech).
Assuming that the cAMP concentration when human GLP-1 (7-36) is dispensed to a final concentration of 2 nM is 100% and the cAMP concentration when only DMSO is dispensed is 0%, the 50% effective concentration (EC50) and the maximum effect (Emax) of the compound of the present invention are calculated using an increase in the cAMP concentration as an index, using TIBCO Spotfire (TIBCO Software). The dilution concentration or the dilution solvent are changed as necessary.
The compounds of the present invention were tested essentially as described above.

The structures appear in SMILES notation.

T1 sequence (P43220 24-463): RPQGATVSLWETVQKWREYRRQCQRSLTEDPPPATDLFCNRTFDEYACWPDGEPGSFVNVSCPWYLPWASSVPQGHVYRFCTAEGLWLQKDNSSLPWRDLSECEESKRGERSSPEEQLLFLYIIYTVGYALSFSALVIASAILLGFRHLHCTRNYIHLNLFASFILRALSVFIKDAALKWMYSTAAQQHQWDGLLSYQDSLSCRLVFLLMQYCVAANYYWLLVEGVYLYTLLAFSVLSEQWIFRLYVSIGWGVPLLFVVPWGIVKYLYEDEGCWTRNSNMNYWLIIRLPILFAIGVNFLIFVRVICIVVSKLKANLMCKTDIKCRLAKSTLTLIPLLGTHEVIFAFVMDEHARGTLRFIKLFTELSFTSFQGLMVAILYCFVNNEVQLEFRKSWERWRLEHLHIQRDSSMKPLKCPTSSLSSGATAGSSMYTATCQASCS

On to `CC(NCc1nc2ccc(C(=O)O)cc2n1C[C@@H]1CCO1)c1nc(OCc2ccc(Cl)cc2F)c(C(F)(F)F)cc1F` (mixture of isomers) [Compound I-003], for which the Emax (as a rule, the greatest response seen or fitted, relative to the assay's reference) was determined as 65.3% and the concentration for a half-maximal effect (EC50) (as a rule, the concentration that produces a half-maximal response) stood at 354 nM.
For `CC(NCc1nc2ccc(C(=O)O)cc2n1C[C@@H]1CCO1)c1ccc(C(F)(F)F)c(OCc2ccc(Cl)cc2F)n1` (mixture of isomers) [Compound I-004] the same measures were 60% and 1060 nM.
Consider `CN(CCc1cnc(OCc2ccc(Cl)cc2F)c(C(F)(F)F)c1)Cc1nc2ccc(C(=O)O)cc2n1C[C@@H]1CCO1` [Compound I-002], for which the maximal response (Emax) is 52% and the 50% effective concentration (EC50) turned out to be 2300 nM.
In turn, `CC(c1ccc(C(F)(F)F)c(OCc2ccc(Cl)cc2F)n1)N(C)Cc1nc2ccc(C(=O)O)cc2n1C[C@@H]1CCO1` (stereo partly shown) [Compound I-005] yielded a maximal effect (Emax) of 74.7% and an EC50 of 86 nM.
With `O=C(O)c1ccc2nc(CNCc3ccc(C(F)(F)F)c(OCc4ccc(Cl)cc4F)n3)n(C[C@@H]3CCO3)c2c1` [Compound I-006], the Emax stood at 55% and the EC50 worked out at 2830 nM.

These data come from patent publication US20260098031A1, “MONOCYCLIC COMPOUND HAVING GLP-1 RECEPTOR AGONIST ACTIVITY” (Shionogi & Co., Ltd., priority 2022, published 2026).
